The record followed here is patent publication US20260183275A1, “SUBSTITUTED QUINOLONE COMPOUNDS USEFUL AS INHIBITORS OF TLR9” (Bristol-Myers Squibb Company, priority 2022, published 2026).

Holding throughout (type): cell-based
In one assay the target is T1, human TLR9 (Homo sapiens, UniProt Q9NR96).
T1 construct: host or cells: HEK-Blue cells
T1 sequence (Q9NR96 26-1032): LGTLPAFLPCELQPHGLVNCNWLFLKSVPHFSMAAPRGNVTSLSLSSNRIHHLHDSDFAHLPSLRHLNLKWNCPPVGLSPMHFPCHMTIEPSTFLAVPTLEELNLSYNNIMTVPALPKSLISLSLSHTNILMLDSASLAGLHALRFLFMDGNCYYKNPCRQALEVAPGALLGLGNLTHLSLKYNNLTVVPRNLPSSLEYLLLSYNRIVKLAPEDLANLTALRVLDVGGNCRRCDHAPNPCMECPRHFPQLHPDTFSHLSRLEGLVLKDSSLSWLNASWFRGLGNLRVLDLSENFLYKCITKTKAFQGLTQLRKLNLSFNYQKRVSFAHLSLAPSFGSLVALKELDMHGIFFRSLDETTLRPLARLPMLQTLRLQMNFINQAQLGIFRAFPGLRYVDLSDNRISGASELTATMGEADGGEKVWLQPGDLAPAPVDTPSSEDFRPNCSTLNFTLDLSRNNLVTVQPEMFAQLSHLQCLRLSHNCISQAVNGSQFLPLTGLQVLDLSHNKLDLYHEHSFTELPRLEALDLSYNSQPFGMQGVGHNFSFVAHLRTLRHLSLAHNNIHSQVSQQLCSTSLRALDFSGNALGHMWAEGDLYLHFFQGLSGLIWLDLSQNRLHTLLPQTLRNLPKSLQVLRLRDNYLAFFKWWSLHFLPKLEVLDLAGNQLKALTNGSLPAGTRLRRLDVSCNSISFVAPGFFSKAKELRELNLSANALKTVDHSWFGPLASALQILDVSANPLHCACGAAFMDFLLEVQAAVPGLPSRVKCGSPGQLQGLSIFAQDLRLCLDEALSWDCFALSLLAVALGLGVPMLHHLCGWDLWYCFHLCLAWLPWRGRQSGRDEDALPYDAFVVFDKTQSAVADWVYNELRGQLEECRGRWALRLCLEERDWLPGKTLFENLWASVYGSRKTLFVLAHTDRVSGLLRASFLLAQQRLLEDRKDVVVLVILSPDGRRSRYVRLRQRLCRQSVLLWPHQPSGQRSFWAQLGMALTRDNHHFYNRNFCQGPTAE
In words: TLR9 inhibition reporter assay (HEK-Blue cells, SEAP reporter). Conditions: HEK-Blue cells overexpressing human TLR9; stimulated with ODN2006 5 nM; SEAP read after 22 hour; dose range 0.05 nM-50 μM. An outline of the steps: (§1)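 HEK-Blue cells with NF-κB/AP-1-driven SEAP pre-treated 30 min with compounds (0.05 nM-50 μM), then stimulated with gardiquimod 7.5 μM (TLR7), R848 15.9 μM (TLR8) or ODN2006 5 nM (TLR9). SEAP read after 22 h at 37° C; % inhibition relative to agonist+DMSO and reference-inhibitor wells.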
(A reporter such as luciferase makes a cellular process visible.)

Another assay addresses T2, human TLR8 (Homo sapiens, UniProt Q9NR97).
T2 construct: host or cells: HEK-Blue cells
T2 sequence (Q9NR97 27-1041): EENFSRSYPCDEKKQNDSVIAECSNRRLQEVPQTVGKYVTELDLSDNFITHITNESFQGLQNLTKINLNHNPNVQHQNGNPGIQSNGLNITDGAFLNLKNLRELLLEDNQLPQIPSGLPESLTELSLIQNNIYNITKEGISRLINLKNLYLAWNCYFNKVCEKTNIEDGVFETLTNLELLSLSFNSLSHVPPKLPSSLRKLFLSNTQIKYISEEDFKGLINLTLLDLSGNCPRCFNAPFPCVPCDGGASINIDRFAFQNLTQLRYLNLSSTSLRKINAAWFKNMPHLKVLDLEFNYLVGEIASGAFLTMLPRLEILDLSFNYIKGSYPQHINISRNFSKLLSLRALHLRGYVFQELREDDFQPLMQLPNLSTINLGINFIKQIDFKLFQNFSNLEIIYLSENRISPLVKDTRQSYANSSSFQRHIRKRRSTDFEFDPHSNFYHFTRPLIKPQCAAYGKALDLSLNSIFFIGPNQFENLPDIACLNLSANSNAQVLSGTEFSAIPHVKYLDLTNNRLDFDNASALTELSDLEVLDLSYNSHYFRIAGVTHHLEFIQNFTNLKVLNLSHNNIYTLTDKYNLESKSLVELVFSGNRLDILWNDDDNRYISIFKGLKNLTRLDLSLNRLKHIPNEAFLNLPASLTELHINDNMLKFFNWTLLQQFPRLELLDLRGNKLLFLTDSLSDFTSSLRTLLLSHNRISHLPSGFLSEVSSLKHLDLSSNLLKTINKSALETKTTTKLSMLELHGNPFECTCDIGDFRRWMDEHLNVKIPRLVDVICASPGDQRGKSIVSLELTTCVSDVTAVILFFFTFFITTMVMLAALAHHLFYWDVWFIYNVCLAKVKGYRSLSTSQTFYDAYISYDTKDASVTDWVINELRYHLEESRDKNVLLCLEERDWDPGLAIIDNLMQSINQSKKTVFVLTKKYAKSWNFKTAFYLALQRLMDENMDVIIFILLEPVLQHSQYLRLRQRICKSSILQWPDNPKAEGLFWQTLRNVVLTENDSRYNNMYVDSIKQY
In words: TLR8 inhibition reporter assay (HEK-Blue cells, SEAP reporter). To be noted: HEK-Blue cells overexpressing human TLR8; stimulated with R848 15.9 μM; SEAP read after 22 hour; dose range 0.05 nM-50 μM. In outline: as §1

The target of the next assay is T3, human TLR7 (Homo sapiens, UniProt Q9NYK1).
T3 construct: host or cells: HEK-Blue cells
T3 sequence (Q9NYK1 27-1049): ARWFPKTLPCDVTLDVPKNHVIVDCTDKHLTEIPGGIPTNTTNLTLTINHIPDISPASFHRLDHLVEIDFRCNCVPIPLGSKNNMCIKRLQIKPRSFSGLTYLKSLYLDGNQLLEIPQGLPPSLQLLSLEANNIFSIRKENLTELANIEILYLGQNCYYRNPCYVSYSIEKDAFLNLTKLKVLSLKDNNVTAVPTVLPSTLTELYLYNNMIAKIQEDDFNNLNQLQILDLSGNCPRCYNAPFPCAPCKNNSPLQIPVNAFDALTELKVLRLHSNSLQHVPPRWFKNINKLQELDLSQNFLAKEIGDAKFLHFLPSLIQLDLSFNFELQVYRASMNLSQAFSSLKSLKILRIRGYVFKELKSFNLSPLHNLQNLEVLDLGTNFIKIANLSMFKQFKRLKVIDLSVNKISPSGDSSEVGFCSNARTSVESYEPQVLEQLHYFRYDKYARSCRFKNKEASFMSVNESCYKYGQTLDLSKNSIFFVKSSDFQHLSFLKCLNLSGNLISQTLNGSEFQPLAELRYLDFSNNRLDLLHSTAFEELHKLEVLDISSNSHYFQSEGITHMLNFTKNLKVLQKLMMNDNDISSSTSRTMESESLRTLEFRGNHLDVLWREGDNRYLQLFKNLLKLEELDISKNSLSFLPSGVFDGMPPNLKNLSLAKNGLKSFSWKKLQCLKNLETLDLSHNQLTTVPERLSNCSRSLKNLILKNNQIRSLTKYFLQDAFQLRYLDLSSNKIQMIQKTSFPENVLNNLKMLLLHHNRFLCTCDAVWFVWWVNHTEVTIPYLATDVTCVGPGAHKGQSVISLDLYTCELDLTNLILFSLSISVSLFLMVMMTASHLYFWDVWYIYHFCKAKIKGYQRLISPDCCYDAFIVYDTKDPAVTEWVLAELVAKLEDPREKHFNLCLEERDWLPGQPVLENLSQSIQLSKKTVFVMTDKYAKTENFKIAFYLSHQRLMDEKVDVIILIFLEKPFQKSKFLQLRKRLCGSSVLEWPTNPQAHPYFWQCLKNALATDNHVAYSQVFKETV
The assay can be described thus: TLR7 inhibition reporter assay (HEK-Blue cells, SEAP reporter). To be noted: HEK-Blue cells overexpressing human TLR7; stimulated with gardiquimod 7.5 μM; SEAP read after 22 hour; dose range 0.05 nM-50 μM. In outline: as §1

Turning to `CC(C)N1CCC(N2CCC(c3ccc4[nH]c(=O)c(-c5ccccc5)cc4c3)CC2)CC1` [Example 64, 3-phenyl-6-[1′-(propan-2-yl)-[1,4′-bipiperidine]-4-yl]-1,2-dihydroquinolin-2-one], the figures for the IC50 against human TLR9, against human TLR8 and against human TLR7 were 30 nM, at least 50000 nM and 1480 nM, respectively.
The corresponding values for `CC(C)N1CCC(c2ccc(-c3ccc4[nH]c(=O)c(-c5ccc(S(N)(=O)=O)cc5)cc4c3)cc2)CC1` [Example 65, 4-(2-oxo-6-{4-[1-(propan-2-yl)piperidin-4-yl]phenyl}-1,2-dihydroquinolin-3-yl)benzene-1-sulfonamide] are 55 nM, 4870 nM and 342 nM.
On to `CCc1c(-c2ccc(S(C)(=O)=O)cc2)c(=O)[nH]c2ccc(C3CCN(C4CCN(C(C)C)CC4)CC3)cc12` [Example 66, 4-ethyl-3-(4-methanesulfonylphenyl)-6-[1′-(propan-2-yl)-[1,4′-bipiperidine]-4-yl]-1,2-dihydroquinolin-2-one], for which the concentration for half-maximal inhibition (IC50) – broadly, the concentration that gives 50% inhibition – on human TLR9 was 57 nM; at human TLR8, at least 50000 nM; against human TLR7 it was 9970 nM.
On the same counts, the results for `CC(C)N1CCC(c2ccc(-c3ccc4[nH]c(=O)c(-c5cccc(NS(C)(=O)=O)c5)cc4c3)cc2)CC1` [Example 67, N-[3-(2-oxo-6-{4-[1-(propan-2-yl)piperidin-4-yl]phenyl}-1,2-dihydroquinolin-3-yl)phenyl]methanesulfonamide] are 67 nM, at least 50000 nM and 817 nM.
Turning to `CC(C)N1CCC(c2ccc(-c3ccc4c(c3)cc(-c3ccc(S(C)(=O)=O)cc3)c(=O)n4C)cc2)CC1` [Example 68, 3-(4-methanesulfonylphenyl)-1-methyl-6-{4-[1-(propan-2-yl)piperidin-4-yl]phenyl}-1,2-dihydroquinolin-2-one], the IC50 turned out to be 70 nM at human TLR9, 475 nM at human TLR8 and 7960 nM against human TLR7.
On to `CC(C)N1CCC(c2ccc(-c3ccc4[nH]c(=O)c(-c5cccc(C#N)c5)cc4c3)cc2)CC1` [Example 69, 3-(2-oxo-6-{4-[1-(propan-2-yl)piperidin-4-yl]phenyl}-1,2-dihydroquinolin-3-yl)benzonitrile], for which the IC50 on human TLR9 was 75 nM; against human TLR8, 17600 nM; against human TLR7, 538 nM.
On the same counts, the results for `CN1CCC(c2ccc(-c3ccc4[nH]c(=O)c(-c5ccc(NS(C)(=O)=O)cc5)cc4c3)cc2)CC1` [Example 70, N-(4-{6-[4-(1-methylpiperidin-4-yl)phenyl]-2-oxo-1,2-dihydroquinolin-3-yl}phenyl)methanesulfonamide] are 78 nM, at least 50000 nM and 204 nM.
The corresponding values for `CC(C)N1CCC(c2ccc(-c3ccc4[nH]c(=O)c(-c5ccc(S(C)(=O)=O)cc5)cc4c3)cc2)CC1` [Example 71, 3-(4-methanesulfonylphenyl)-6-{4-[1-(propan-2-yl)piperidin-4-yl]phenyl}-1,2-dihydroquinolin-2-one] are 140 nM, 9280 nM and 29900 nM.
The corresponding values for `CC(C)N1CCC(c2ccc(-c3ccc4c(c3)cc(-c3ccc(S(C)(=O)=O)cc3)c(=O)n4CCO)cc2)CC1` [Example 72, 1-(2-hydroxyethyl)-3-(4-methanesulfonylphenyl)-6-{4-[1-(propan-2-yl)piperidin-4-yl]phenyl}-1,2-dihydroquinolin-2-one] are 154 nM, 21700 nM and 3580 nM.
Regarding `CC(C)N1CCC(c2ccc(-c3ccc4c(c3)cc(-c3ccccc3)c(=O)n4C)cc2)CC1` [Example 73, 1-methyl-3-phenyl-6-{4-[1-(propan-2-yl)piperidin-4-yl]phenyl}-1,2-dihydroquinolin-2-one], the IC50 against human TLR9 is 219 nM; at human TLR8 it was 763 nM; against human TLR7, 1480 nM.
As for `CC(C)N1CCC(c2ccc(-c3ccc4c(c3)cc(-c3ccc(N(C)S(C)(=O)=O)cc3)c(=O)n4C)cc2)CC1` [Example 74, N-methyl-N-[4-(1-methyl-2-oxo-6-{4-[1-(propan-2-yl)piperidin-4-yl]phenyl}-1,2-dihydroquinolin-3-yl)phenyl]methanesulfonamide], the results for the IC50 at human TLR9, on human TLR8 and against human TLR7 were 237 nM, 29600 nM and 12000 nM, respectively.
The corresponding values for `CC(C)N1CCC(c2ccc(Nc3ccc4c(c3)cc(-c3ccc(S(C)(=O)=O)cc3)c(=O)n4C)cc2)CC1` [Example 75, 3-(4-methanesulfonylphenyl)-1-methyl-6-({4-[1-(propan-2-yl)piperidin-4-yl]phenyl}amino)-1,2-dihydroquinolin-2-one] are 253 nM, at least 50000 nM and 6630 nM.
